Active and inactive are the calls of the source. The calls are words filed in the database; no cut-off is given here.
Key:
C-33-A [1] = assay: Induction of morphological changes in human C-33-A cells assessed as increase in inflated cell appearance at 0.3 to 1.2 uM by microphotographic analysis; assay type: functional, cell-based; details: dose 0.3-1.2 µM
HeLa [2] = assay: Induction of morphological changes in human HeLa cells assessed as increase in appearance of round cells at 0.6 to 2.4 uM by microphotographic analysis; assay type: functional, cell-based; details: dose 0.6-2.4 µM
HeLa [3] = assay: Antiproliferative activity against human HeLa cells assessed as reduction in cell optical density incubated for 48 hrs by MTT assay; assay type: functional, cell-based
Ca-Ski [4] = assay: Induction of apoptosis in human Ca Ski cells assessed as early apoptotic cells at 1 uM incubated for 24 hrs by Annexin V-FITC/PI staining based flow cytometric analysis (reference value: 4.76 %); assay type: functional
HeLa [5] = assay: Effect on PARP expression level in Bax deficient human HeLa cells at 0.6 to 1.2 uM incubated for 24 hrs by Western blot analysis; assay type: functional, cell-based; details: dose 0.6-1.2 µM
Ca-Ski [6] = assay: Effect on ACSL4 protein expression level in human Ca Ski cells at 0.5 uM incubated for 24 hrs by Western blot analysis; assay type: functional, cell-based
Ca-Ski [7] = assay: Effect on GPX4 protein expression level in human Ca Ski cells at 0.5 uM incubated for 24 hrs by Western blot analysis; assay type: functional, cell-based
Ca-Ski [8] = assay: Inhibition of cell migration in human Ca Ski cells at 0.5 to 1.0 uM measured after 48 hrs by cell scratch assay; assay type: functional, cell-based; details: dose 0.5-1 µM
HeLa [9] = assay: Effect on TRFC protein expression level in human HeLa cells at 0.6 uM incubated for 24 hrs by Western blot analysis; assay type: functional, cell-based
HeLa [10] = assay: Effect on cleaved caspase 3 expression level in Bax deficient human HeLa cells at 0.6 to 1.2 uM incubated for 24 hrs by Western blot analysis; assay type: functional, cell-based; details: dose 0.6-1.2 µM
Ca-Ski [11] = assay: Effect on SLC7A11 protein expression level in human Ca Ski cells at 0.5 uM incubated for 24 hrs by Western blot analysis; assay type: functional, cell-based
HeLa [12] = assay: Induction of apoptosis in human HeLa cells assessed as viable cells at 0.6 uM incubated for 24 hrs by Annexin V-FITC/PI staining based flow cytometric analysis (reference value: 96.2 %); assay type: functional; details: read-out: Activity
Ca-Ski [13] = assay: Induction of apoptosis in human Ca Ski cells assessed as viable cells at 1 uM incubated for 24 hrs by Annexin V-FITC/PI staining based flow cytometric analysis (reference value: 86.8 %); assay type: functional; details: read-out: Activity
Ca-Ski [14] = assay: Induction of apoptosis in human Ca Ski cells assessed as necrotic cells at 0.5 uM preincubated with Z-VAD-FMK for 1 hrs followed by compound addition and measured after 24 hrs by Annexin V-FITC/PI staining based flow cytometric analysis (reference value: 1.54 %); assay type: functional
HeLa [15] = assay: Inhibition of colony formation in ATG7 deficient human HeLa cells at 0.15 to 0.6 uM incubated for 24 hrs by crystal violet staining based analysis; assay type: functional, cell-based; details: dose 0.15-0.6 µM
Ca-Ski [16] = assay: Induction of autophagy in human Ca Ski cells transfected with mRFP-GFP-LC3 plasmid assessed as stable RFP fluorescence at 25 uM incubated for 24 hrs by DAPI staining based fluorescence confocal microscopic analysis; assay type: functional, cell-based
HeLa [17] = assay: Induction of morphological changes in human HeLa cells assessed as increase in inflated cell appearance at 0.6 to 2.4 uM by microphotographic analysis; assay type: functional, cell-based; details: dose 0.6-2.4 µM
Ca-Ski [18] = assay: Induction of apoptosis in human Ca Ski cells assessed as late apoptotic cells at 1 uM incubated for 24 hrs by Annexin V-FITC/PI staining based flow cytometric analysis (reference value: 5.33 %); assay type: functional
HeLa [19] = assay: Inhibition of cell migration in human HeLa cells at 0.6 to 1.2 uM measured after 24 hrs by transwell migration assay; assay type: functional, cell-based; details: dose 0.6-1.2 µM
Ca-Ski [20] = assay: Induction of autophagy in human Ca Ski cells transfected with mRFP-GFP-LC3 plasmid assessed as decrease in GFP fluorescence at 0.3 to 0.6 uM incubated for 24 hrs by DAPI staining based fluorescence confocal microscopic analysis; assay type: functional, cell-based; details: dose 0.3-0.6 µM
HeLa [21] = assay: Induction of apoptosis in human HeLa cells assessed as late apoptotic cells at 0.6 uM incubated for 24 hrs by Annexin V-FITC/PI staining based flow cytometric analysis (reference value: 0.94 %); assay type: functional
HeLa [22] = assay: Induction of autophagy in human HeLa cells transfected with mRFP-GFP-LC3 plasmid assessed as stable RFP fluorescence at 0.4 to 0.8 uM incubated for 24 hrs by DAPI staining based fluorescence confocal microscopic analysis; assay type: functional, cell-based; details: dose 0.4-0.8 µM
Ca-Ski [23] = assay: Induction of autophagolysosome formation in human Ca Ski cells transfected with mRFP-GFP-LC3 plasmid assessed as increase in ratio of mRFP to GFP puncta at 0.3 to 0.6 uM incubated for 24 hrs; assay type: functional, cell-based; details: dose 0.3-0.6 µM
SiHa = assay: Antiproliferative activity against human SiHa cells assessed as inhibition of cell viability incubated for 24 hrs by CCK8 assay; assay type: functional, cell-based
C-33-A [24] = assay: Antiproliferative activity against human C-33-A cells assessed as inhibition of cell viability incubated for 24 hrs by CCK8 assay; assay type: functional, cell-based
Ca-Ski [25] = assay: Inhibition of colony formation in ATG7 deficient human Ca Ski cells at 0.1 to 0.4 uM incubated for 24 hrs by crystal violet staining based analysis; assay type: functional, cell-based; details: dose 0.1-0.4 µM
HeLa [26] = assay: Induction of apoptosis in human HeLa cells assessed as early apoptotic cells at 0.6 uM preincubated with Z-VAD-FMK for 1 hrs followed by compound addition and measured after 24 hrs by Annexin V-FITC/PI staining based flow cytometric analysis (reference value: 0.96 %); assay type: functional
HeLa [27] = assay: Induction of autophagy in human HeLa cells assessed as increase in LC3-II accumulation at 0.6 uM incubated for 3 to 48 hrs by Western blot analysis; assay type: functional, cell-based; details: time 3-48 hrs
HeLa [28] = assay: Upregulation of autophagy pathway related gene expression in human HeLa cells at 1.2 uM incubated for 24 hrs by GSVA enrichment analysis; assay type: functional, cell-based
Ca-Ski [29] = assay: Induction of autophagy in human Ca Ski cells transfected with mRFP-GFP-LC3 plasmid assessed as stable RFP fluorescence at 0.3 to 0.6 uM incubated for 24 hrs by DAPI staining based fluorescence confocal microscopic analysis; assay type: functional, cell-based; details: dose 0.3-0.6 µM
HeLa [30] = assay: Induction of autophagy in human HeLa cells assessed as increase in p62 level at 0.3 to 1.2 microM incubated for 24 hrs by Western blot analysis; assay type: functional, cell-based; details: dose 0.3-1.2 µM
Ca-Ski [31] = assay: Antiproliferative activity against ATG5 deficient human Ca Ski cells assessed as inhibition of cell viability incubated for 24 hrs by CCK8 assay; assay type: functional, cell-based
C-33-A [32] = assay: Induction of morphological changes in human C-33-A cells assessed as increase in appearance of round cells at 0.3 to 1.2 uM by microphotographic analysis; assay type: functional, cell-based; details: dose 0.3-1.2 µM
HeLa [33] = assay: Antiproliferative activity against ATG7 deficient human HeLa cells assessed as inhibition of cell viability incubated for 24 hrs by CCK8 assay; assay type: functional, cell-based
[34] = Toxicity in female BALB/c mouse xenografted with human HeLa cells assessed as effect on platelet level at 4 to 8 mg/kg administered every four days and measured after 26 days; assay type: organism-based; details: in vivo, 624 h, dose 4-8 mg/kg, time 26 day

For `COc1cccc(Nc2ccnc3cc(OCCCCCOc4ccc5c(Nc6cccc(OC)c6)ccnc5c4)ccc23)c1`, the Activity (C-33-A [1]) was “Active”, the Activity (HeLa [2]) was “Active” and the IC50 (HeLa [3]) was 3.71 µM. The Activity (Ca-Ski [4]) was 7.2%, the Activity (HeLa [5]) was “inactive” and the Activity (Ca-Ski [6]) was “Moderate_effect”. For the same compound, the Activity (Ca-Ski [7]) was “Moderate_effect”, the inhibition (Ca-Ski [8]) was “Active” and the Activity (HeLa [9]) was “inactive”. The Activity (HeLa [10]) was “inactive”, the Activity (Ca-Ski [11]) was “Moderate_effect” and the viability at 0.6 µM (HeLa [12]) was 94.3%. For the same compound, the viability at 1 µM (Ca-Ski [13]) was 82%, the Activity (Ca-Ski [14]) was 1.4% and the inhibition (HeLa [15]) was “Minimal_effect”. For the same compound, the Activity (Ca-Ski [16]) was “Active”, the Activity (HeLa [17]) was “Active” and the Activity (Ca-Ski [18]) was 7.8%. The inhibition (HeLa [19]) was “Active”, the Activity (Ca-Ski [20]) was “Active” and the Activity (HeLa [21]) was 2.27%. The Activity (HeLa [22]) was “Active”, the Activity (Ca-Ski [23]) was “Active” and the Activity (SiHa) was “Dose-dependent-effect”. The IC50 (SiHa) was 1.45 µM, the Activity (C-33-A [24]) was “Dose-dependent-effect” and the IC50 (C-33-A [24]) was 0.807 µM. For the same compound, the inhibition (Ca-Ski [25]) was “Minimal_effect”, the Activity (HeLa [26]) was 1.31% and the Activity (HeLa [27]) was “Active”. For the same compound, the Activity (HeLa [28]) was “Active”, the Activity (Ca-Ski [29]) was “Active” and the Activity (HeLa [30]) was “Active”. For the same compound, the IC50 (Ca-Ski [31]) was 1.58 µM, the Activity (C-33-A [32]) was “Active” and the IC50 (HeLa [33]) was 2.31 µM. For the same compound, the Activity [34] was “Non-toxic”.

Reference: ChEMBL document CHEMBL6115007, “Synthesis and in vitro and in vivo evaluation of novel bivalent quinolines as antitumor agents via targeting autophagy in cervical cancer” (Eur J Med Chem, 2025)
